Ends that are not written are not given here.
Assays:
[1] = test system: isolated guinea pig gallbladder; experiment: Isolated guinea pig gallbladder assay (contraction, % CCK-induced maximal response); conditions: Table 2; for % contraction: Cavia porcellus
Experimental: 3. GUINEA PIG GALL BLADDER ASSAY
Gallbladders are removed from guinea pigs sacrificed by cervical dislocation. The isolated gallbladders are cleaned of adherent connective tissue and cut into two rings from each animal (2-6 mm in length). […] Tissues are connected via gold chains and stainless steel mounting wires to isometric force displacement transducers (Grass, Model FT03 D). Responses are then recorded on a polygraph (Grass, Model 7E).
Rings are gradually stretched (over a 120 min. period) to a basal resting tension of 1 gm which is maintained throughout the experiment. During the basal tension adjustment period, the rings are exposed to acetylcholine (10^-6 M) four times to verify tissue contractility. The tissues are then exposed to a submaximal dose of sulfated CCK-8 (Sigma, 3×10^-9 M). After obtaining a stable response, the tissues are washed out 3 times rapidly and every 5 to 10 minutes for 1 hour to reestablish a stable baseline.
As a final test, ACH (10 μM) is added to induce maximal contraction.

rat gastric emptying = experiment: Rat gastric emptying assay (methyl cellulose/phenol red test meal); assay type: in vivo; conditions: vehicle 66
Experimental: 7. RAT GASTRIC EMPTYING PROTOCOL
Methyl Cellulose (MC) Test Meal
1. Disperse MC in water at 80° C. at a final concentration of 1.5% under continuous stirring. Cool to room temperature.
2. Add Phenol Red (50 mg/100) to solution.
3. Keep solution stirring during entire experiment.
1. Food deprive animals for 18 hours.
2. Inject test drug/prop. glycol or prop. glycol alone intraperitoneally.
3. After 5 minutes, gavage 1.5 mL of Pheno Red/MC solution
1. After 20 minutes, decapitate animal
2. Clamp stomach at the pylorus and cardia ends, and rinse in 0.9% NaCl.
3. Place stomach in 100 mL of 0.1N NaOH, cut into small pieces, and homogenize for 30 seconds.
4. Let settle at room temperature for 60 minutes.
5. In centrifuge tube, add 5 mL of supernatant and 0.5 mL of trichloroacetic acid (29% w/v), and centrifuge at 2,800 rpm for 20 minutes.
6. Decant supernatant, and add 4 mL of 0.5N NaOH and read absorbance at a wavelength of 560 nm.
The standard stomach is determined from the phenol red recovered in stomachs of rats decapitated immediately after intragastric infusion of MC/phenol red.

[2] = literature background; cited from earlier work
[3] = intraperitoneally at 0.1 μmoles/kg

COc1ccc(N(C(=O)CN2C(=O)C(Cc3n[nH]c4ccccc34)C(=O)N(c3ccccc3)c3ccccc32)C(C)C)cc1 (stereo not shown) [CCK-A agonist 1, 2[3(1H-Indazol-3-ylmethyl)-2,4-dioxo-5-phenyl-2,3,4,5-tetrahydro-benzo[b]1,4]diazepin1-ylN-isopropyl-N-(4-methoxy-phenyl) acetamide, reference compound]
% contraction ([1]; delivered at 3 μM): 87%
rat gastric emptying: % emptying (rat gastric emptying; [3]): 6%

CCK-8: CCK8 is the Cterminal octapeptide of CCK (DYMGWMDF; ends and bridges not checked; UniProt P06307 96-103, looked up) [reference compound]
Isolated guinea pig gallbladder: % contraction ([1]; CCK-8 delivered at 1 μM): 100%
rat gastric emptying: % emptying (rat gastric emptying; CCK-8 intraperitoneally at 30 nmoles/kg): 0%

COc1ccc(N(C(=O)CN2C(=O)C(Cc3n[nH]c4ccccc34)C(=O)N(c3ccccn3)c3ccccc32)C(C)C)cc1 (stereo not shown) [CCK-A agonist 2, reference compound]
% contraction ([1]; delivered at 30 μM): 100%
rat gastric emptying: % emptying (rat gastric emptying; [3]): 2.5%

B1: CCK: a peptide found in the gastrointestinal tract and the central nervous system (peptide, UniProt P06307 21-115, looked up)
Cholecystokinin: QPVPPADPAGSGLQRAEEAPRRQLRVSQRTDGESRAHLGALLARYIQQARKAPSGRMSIVKNLQNLDPSHRISDRDYMGWMDFGRRSAEEYEYPS
modifications: Cholecystokinin
notes: a peptide found in the gastrointestinal tract and the central nervous system
inhibition of gastric emptying in humans [2]: inhibit gastric emptying in humans

— patent US5795887A, “Method of inducing cholecystokinin agonist activity using 1,4- Benzodiazepine compounds” (Glaxo Wellcome Inc., priority 1994, dated 1998)
